Assay results from patent US20140038920A1, “TFEB PHOSPHORYLATION INHIBITORS AND USES THEREOF” (FONDAZIONE TELETHON, priority 2011, published 2014).
Where two headings read alike, the source gives them in different places.

Legend:
[1] = tested on: TFEB; experiment: High content TFEB-GFP nuclear translocation assay; assay type: cell-based; conditions: Homo sapiens, TFEB-GFP HeLa cells
[2] = tested on: TFEB S142; experiment: TFEB S142 phosphorylation with p-S142 phospho-antibody in HeLa cells (FIG. 20A); assay type: cell-based; conditions: starved cells supplemented with normal media with inhibitor
Method: FIG. 20 mTORC1 phosphorylates TFEB at serine 142 (S142). […] HeLa cells were treated as indicated and total and nuclear extracts were probed with a TFEB p-S142 phospho-antibody and with anti-FLAG antibody. (B) Schematic representation of TFEB protein structure with the predicted mTORC1 phosphorylation sites and their conservation among vertebrates. Numbering is according to human isoform 1. (C) Sequence conservation scores of the phosphorylation sites and quantitative agreement between mTOR consensus motif and the sequence around the phosphorylation sites of TFEB. (D) S142 and S211 regulate TFEB localization. Flag immunostaining of TFEB subcellular localization in HeLa cells expressing serine-to-alanine mutated versions of TFEB-3×Flag. Nuclei were stained with DAPI. Values are means of five fields containing at least 50 transfected cells. Student's t-test (unpaired) ***P<0.001. Scale bars represent […].
The mouse anti-TFEB monoclonal antibody was purchased from My Biosource catalogue No. MBS 120432. To generate anti-pS142 specific antibodies, rabbits were immunized with the following peptide coupled to KLH: AGNSAPN{pSer}[…]. Following the fourth immunization, rabbits were sacrificed and the serum was collected. Non-phosphospecific antibodies were depleted from the serum by circulation through a column containing the nonphosphorylated antigene. […]

[3] = 3 h, ten concentrations 2.54 nM to 50 μM (FIG. 19D), read-out: EC50, TFEB nuclear translocation
[4] = mobilization of cytosolic TFEB to the nucleus, 3 h at 37° C. in RPMI, ten concentrations 50 μM to 2.54 nM, 4 runs, read-out: Average EC50

Row | SMILES | EC50 [1, 3] | EC50 [1, 4] | nutrient-induced S142 phosphorylation of TFEB [2]
1 | CO[C@H]1C[C@@H]2CC[C@@H](C)[C@@](O)(O2)C(=O)C(=O)N2CCCC[C@H]2C(=O)O[C@H]([C@H](C)C[C@@H]2CC[C@@H](O)[C@H](OC)C2)CC(=O)[C@H](C)/C=C(\C)[C@@H](O)[C@@H](OC)C(=O)[C@H](C)C[C@H](C)/C=C/C=C/C=C/1C [RAPAMYCIN] | 104 µM | > 15 µM | did not
2 | CCC(=O)N1CCN(c2ccc(-n3c(=O)ccc4cnc5ccc(-c6cnc7ccccc7c6)cc5c43)cc2C(F)(F)F)CC1 [TORIN 1] | 0.148 µM | < 7 µM | clearly blunted nutrient-induced S142 phosphorylation
